Test results reported in EP0423032A2, “Process for the preparation of isoxazolyl and isothiazolyl imidazobenzodiazepines, new derivatives thus obtained, their use as medicaments and compositions containing them” (ROUSSEL-UCLAF, priority 1989, dated 1991).

System: récepteurs des benzodiazépines
Assay: In vivo measurement of binding to benzodiazepine receptors, method of Goeders and Kuhar
Excerpt: La mesure in vivo de la liaison aux récepteurs des benzodiazépines a été effectuée selon la méthode décrite par Goeders N.E. et Kuhar M.J. Life, Sciences (1985) 37, 345. TABLEAU II

Compound	liaison in vivo DE 50 mg/kg IP
CN1Cc2c(-c3cc(C4CC4)no3)ncn2-c2ccccc2C1=O [Exemple 5, 3-(3-cyclopropylisoxazol-5-yl) 5,6-dihydro 5-méthyl 6-oxo-4H-imidazo [1,5-a] [1,4]-benzodiazépine]	2,0 mg/kg
Cc1cc(-c2ncn3c2CN(C)C(=O)c2ccccc2-3)on1 [Exemple 7, 5,6-dihydro 5-méthyl 6-oxo 3-(3-méthylisoxazol-5-yl) 4H-imidazo [1,5-a] [1,4]-benzodiazépine]	0,62 mg/kg
CCc1cc(-c2ncn3c2CN(C)C(=O)c2ccccc2-3)on1 [Exemple 8, 5,6-dihydro 5-méthyl 6-oxo 3-(3-éthylisoxazol-5-yl) 4H-imidazo [1,5-a] [1,4]-benzodiazépine]	> 3,0 mg/kg
